Earlier results in patent US9388155B1, “Coumarin derivatives for cancer therapy” (Wellesley College, priority 2013, dated 2016).

System: pancreatic cancer cell line PANC-1
Conditions: PANC-1, nutrient starvation conditions, within 24 hours

## CC(C)(OC(=O)C=Cc1ccc(O)cc1)C1Cc2c(ccc3ccc(=O)oc23)O1 (stereo not shown) [Angelmarin, 11-O-(p-hydroxy-cinnamoyl) columbianetin]
  cytotoxicity: 0.01 µg/mL
